Results reported in patent US9669049B2, “Compositions comprising gamma retrovirus vectors and methods of treating proliferative disorders” (Tocagen Inc., priority 2010, dated 2017).
Read-outs that look alike come from different tables or passages of the source.

Assays:
[1] = system: recurrent anaplastic oligodendroglioma; experiment: Patient dog with spontaneous recurrent malignant glioma; assay type: in vivo; details: second cycle, 160 mg/kg/day, after fifth day
Description: The tumor measured approximately 13 cm^3, and caused major lateral ventricle compression and significant midline shift. […] ProHance® (gadoteridol) was added to Toca 511 prior to injection to allow visualization of delivery by MRI. The volume of distribution of the vector was estimated to be approximately 10-12% of the tumor volume.
The dog was treated with 5-FC at a divided dose of 130 mg/kg/day, by mouth, three times daily with food for 5 days. The dose was increased to 160 mg/kg/day for 2 more days (7 days of 5-FC total). […] After 21 days of viral spread, a second cycle of 5-FC was initiated at the higher dose of 160 mg/kg/day (divided, three times a day with food).
The subject became more alert, active and remained clinically stable 13 weeks after injection of vector. The subject succumbed to a gastro-intestinal bleed at 15+ weeks, related to the extended administration of high dose steroids, and unrelated to the tumor. The estimated lifespan of the dog was no more than 3-4 weeks at the time of initial injection of the vector.

[2] = system: cultured human glioma cells; assay type: cell-based; set-up: key: +: positive or negative effects have been observed
Tu2449 cells = experiment: Bortezomib plus vector, intracranial Tu2449 glioma survival; assay type: in vivo, mouse; details: Bortezomib 1 mg/kg IP every 7 days; vector 6.3E4 TU/g IC; 5-FC cycles
Description: On Day 0 and every 7 days, Groups 3 and 4 received Bortezomib treatment (1 mg/kg; 25 μg/mouse) IP. […] Survival was assessed for at least 4 cycles.

[3] = system: cultured human plasmacytoid dendritic cells; experiment: IFN production after in vitro stimulation of cultured human plasmacytoid dendritic cells; assay type: cell-based; set-up: key: +: positive or negative effects have been observed; −: positive or negative effects have been observed
[4] = system: cultured human glioma cells; experiment: Initial viral spread in cultured human glioma cells by flow cytometric analysis; assay type: cell-based
TLR3, 7, 8, 9 = details: cited from earlier work
U-87MG = details: 0.1 and 1 μM, 28 days
T98G = details: 0.1 and 1 μM, 28 days
[5] = system: intracranial tumor models; experiment: In vivo screening, IC tumor model; details: mouse
[6] = Pilot study of white blood cell count suppression; assay type: in vivo; details: 400 mg/kg SC
Description: (§1) Dosing Procedures. For Group 3 only, methylprednisolone acetate (Depo-Medrol), 400 mg/kg, was administered subcutaneously (SC) at day −3.

[7] = Vector copies in tissues after intracranial injection with or without steroid; assay type: in vivo, mouse; details: right cerebrum, day 10; p<0.0001
Description: as §1
Toca 511 or vehicle was administered by stereotaxic injection into the right frontal lobe. After anesthetizing the mice and preparing the skull, a small burr hole was drilled through the bone at coordinates AP=+0.5 mm and ML=−2.5 mm from bregma. […] After a hold of 5 minutes, the syringe was withdrawn, the hole sealed with bone wax, the skin closed, and the animal recovered from surgery. To minimize discomfort, ketoprofen was administered SC.
Tissue collection. On day 10, all animals were euthanized and selected tissues and fluids collected using disposable equipment to minimize possible cross-contamination of vector negative by vector positive tissues. […] Assays were performed in triplicate.

parental CT26 cells = experiment: Viral replication kinetics in CT26 cells with exogenous IFNα; details: 1,340 units/mL daily; MOI 0.1 and 1
parental Tu2449 cells = experiment: Viral replication kinetics in Tu2449 cells with exogenous IFNβ; details: 500 units/mL daily; MOI 0.1 and 1

Nc1nc(=O)[nH]cc1F [5-FC, 5-fluorocytosine]
adverse event stopping the drug [1]: development of rash

O=C(NCCCNc1nc(Nc2cccc(NC(=O)N3CCCC3)c2)ncc1I)c1cccs1 [BX795]
activity or benefit observed in the screening experiments (RRV): activity was observed
Efficacy [2]: +

CC(C)C[C@H](NC(=O)[C@H](Cc1ccccc1)NC(=O)c1cnccn1)B(O)O [Bortezomib]
survival of Bortezomib and vector compared to vector, vehicle, or Bortezomib alone (Tu2449 cells): statistically significant survival advantage
activity or benefit observed in the screening experiments (RRV): activity was observed
Efficacy [3]: +

C#Cc1cccc(Nc2ncnc3cc(OC)c(OCCCCCCC(=O)NO)cc23)c1 [CUDU-101]
Efficacy [4]: −

CCN(CC)CCCC(C)Nc1ccnc2cc(Cl)ccc12 (centres unmarked) [Chloroquine]
IC50 (TLR3, 7, 8, 9; read-out: Dosage/IC50, head does not say whether dosage or IC50): 20 µM
Dosage/IC50 (TLR3, 7, 8, 9; same value in mass units): 10 µg/mL

N#CCNC(=O)c1ccc(-c2ccnc(Nc3ccc(N4CCOCC4)cc3)n2)cc1 [Cyt387]
Efficacy [4]: −

C[C@@H]1C[C@H]2[C@@H]3CCC4=CC(=O)C=C[C@]4(C)[C@@]3(F)[C@@H](O)C[C@]2(C)[C@@]1(O)C(=O)CO [Dexamethasone]
Efficacy [4]: +
cell toxicity (U-87MG): No cell toxicity was observed
cell toxicity (T98G): No cell toxicity was observed

Cc1cc(Cl)ccc1OCCCC(=O)NO [Droxinostat]
Efficacy [4]: −

CCN(CC)Cc1ccc2cc(COC(=O)Nc3ccc(C(=O)NO)cc3)ccc2c1 [ITF2357]
Efficacy [4]: −

O=C1Nc2ccc3ncsc3c2/C1=C/c1cnc[nH]1 [Imidazolo-oxindole]
Efficacy [4]: −

CCc1c2c(nc3ccc(OC(=O)N4CCC(N5CCCCC5)CC4)cc13)-c1cc3c(c(=O)n1C2)COC(=O)[C@]3(O)CC [Irinotecan]
Outcome summary IC tumor model [5]: No survival improvement

Nc1ccccc1NC(=O)c1ccc(CNC(=O)OCc2cccnc2)cc1 [MS-275]
Efficacy [4]: −
activity or benefit observed in the screening experiments (RRV): activity was observed
Efficacy [2]: +

CC#C[C@]1(O)CC[C@H]2[C@@H]3CCC4=CC(=O)CCC4=C3[C@@H](c3ccc(N(C)C)cc3)C[C@@]21C [Mifepristone]
Efficacy [4]: +
activity or benefit observed in the screening experiments (RRV): activity was observed

CC(=O)OCC(=O)[C@@]1(O)CC[C@H]2[C@@H]3C[C@H](C)C4=CC(=O)C=C[C@]4(C)[C@H]3[C@@H](O)C[C@@]21C [methylprednisolone acetate]
duration of white blood cell count suppression below normal range [6]: at least 10 days
increase of vector copies with steroids over no steroid [7]: more than 40 fold

IFNα
effect on viral spread (% GFP positive cells) (parental CT26 cells): attenuates viral spread

B1: IFNβ: Recombinant mouse IFNβ (PBL Interferon Source) (protein, UniProt P01575 22-182, looked up)
Interferon beta: INYKQLQLQERTNIRKCQELLEQLNGKINLTYRADFKIPMEMTEKMQKSYTAFAIQEMLQNVFLVFRNNFSSTGWNETIVVRLLDELHQQTVFLKTVLEEKQEERLTWEMSSTALHLKSYYWRVQRYLKLMKYNSYAWMVVRAEIFRNFLIIRRLTRNFQN
effect on viral spread (% GFP positive cells) (parental Tu2449 cells): attenuates viral spread
